Test results as given in patent US20060084135A1, “Compositions for manipulating the lifespan and stress response of cells and organisms” (priority 2003, published 2006).

How the values were obtained:
[1] = system: W303AR cells (rDNA locus RDN1); assay: Ribosomal DNA recombination frequency; assay type: cell-based, S. cerevisiae
[2] = Stability in solution (decay of SIRT1 fold-stimulation of aged stock); assay type: physicochemical; conditions: ethanol stock solution; ethanol stock 2.5 mM, room temperature, glass vials, nitrogen; assayed at 50 μM; read-out: Stability in Solution t1/2 (converted)
From the text: The fold-stimulation (ratio to control) obtained with a compound diluted from an aged stock solution was compared to an identical dilution from a stock solution freshly prepared from the solid compound. “t1/2” is defined as the time required for the SIRT1 fold-stimulation of the compound from the aged solution to decay to one-half of that obtained from a freshly prepared solution. […] Stocks were aged by storage at room […] temperature, in glass vials, under a nitrogen atmosphere.

S. cerevisiae [3] = assay: Yeast replicative lifespan; assay type: cell-based; conditions: 10 μM, wild type
Description: (§1) Average lifespan was determined for wild type untreated (□), quercetin (◯) and piceatannol (●).

recombinant GST-Sir2 = recombinant GST-Sir2 (Saccharomyces cerevisiae, UniProt P06700); assay: Sir2 deacetylation rate assay; assay type: biochemical, S. cerevisiae; conditions: in vitro dose-response
Sequence of recombinant GST-Sir2 (P06700 whole entry): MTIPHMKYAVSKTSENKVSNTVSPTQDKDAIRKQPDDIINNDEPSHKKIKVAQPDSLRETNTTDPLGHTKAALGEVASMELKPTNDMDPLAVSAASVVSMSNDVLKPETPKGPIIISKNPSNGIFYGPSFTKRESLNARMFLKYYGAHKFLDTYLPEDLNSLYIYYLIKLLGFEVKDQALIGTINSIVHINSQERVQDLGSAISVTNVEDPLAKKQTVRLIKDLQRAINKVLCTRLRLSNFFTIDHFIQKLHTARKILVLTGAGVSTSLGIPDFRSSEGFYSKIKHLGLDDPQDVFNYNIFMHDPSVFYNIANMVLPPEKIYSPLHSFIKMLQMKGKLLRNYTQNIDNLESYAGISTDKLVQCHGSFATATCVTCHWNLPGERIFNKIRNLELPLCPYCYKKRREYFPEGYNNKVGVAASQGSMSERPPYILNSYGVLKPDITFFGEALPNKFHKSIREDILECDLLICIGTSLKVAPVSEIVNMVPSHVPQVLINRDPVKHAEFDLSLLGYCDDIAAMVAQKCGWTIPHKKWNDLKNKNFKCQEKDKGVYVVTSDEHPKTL
Description: as §1
To investigate whether these compounds could stimulate sirtuins in vivo, we utilized S. cerevisiae, an organism in which the upstream regulators and downstream targets of Sir2 are relatively well understood.
His6-tagged recombinant SIRT1 and GST-tagged recombinant Sir2 were prepared as described by (Bitterman et al. J Biol Chem 277, 45099-107. (2002). From 0.1 to 1 μg of SIRT1 and 1.5 μg of Sir2 were used per deacetylation assay (in 50 μl total reaction). SIRT1 assays and certain of those for Sir2 employed the p53-382 acetylated substrate (‘Fluor de Lys-SIRT1′, BIOMOL) rather than FdL.
Themed compound libraries (BIOMOL) were used for primary and secondary screening. […] For water soluble compounds and negative controls, 1% v/v DMSO was added to the assay. […] HeLa cells were grown and the cellular deacetylation assays were performed and read, as above, but in full-volume 96-well microplates (Corning Costar 3595). […] Calculation of net fluorescence increases included subtraction of a blank value, which in the case of Sir2 was obtained by omitting the enzyme from the reaction and in the case of SIRT1 by adding an inhibitor (200 μM suramin or 1 mM nicotinamide) to the reaction prior to the acetylated substrate. […]

S. cerevisiae [4] = assay: Yeast replicative lifespan; assay type: cell-based
C. elegans (strain N2) = assay: C. elegans lifespan; assay type: in vivo; conditions: 100 μM, 50 worms strain N2 (control 5 alive)
Description: Thus, the presence of resveratrol in the growth media of C. elegans extends their lifespan.
The effect of some of these compounds on lifespan was determined in yeast, C. elegans and D. melanogaster, as described above.

recombinant human SIRT1 = molecular target: T1, recombinant human SIRT1 (Homo sapiens, UniProt Q96EB6); assay: SIRT1 fluorescent deacetylation assay (p53-382 acetylated peptide substrate); assay type: biochemical
T1 sequence (Q96EB6 1-747): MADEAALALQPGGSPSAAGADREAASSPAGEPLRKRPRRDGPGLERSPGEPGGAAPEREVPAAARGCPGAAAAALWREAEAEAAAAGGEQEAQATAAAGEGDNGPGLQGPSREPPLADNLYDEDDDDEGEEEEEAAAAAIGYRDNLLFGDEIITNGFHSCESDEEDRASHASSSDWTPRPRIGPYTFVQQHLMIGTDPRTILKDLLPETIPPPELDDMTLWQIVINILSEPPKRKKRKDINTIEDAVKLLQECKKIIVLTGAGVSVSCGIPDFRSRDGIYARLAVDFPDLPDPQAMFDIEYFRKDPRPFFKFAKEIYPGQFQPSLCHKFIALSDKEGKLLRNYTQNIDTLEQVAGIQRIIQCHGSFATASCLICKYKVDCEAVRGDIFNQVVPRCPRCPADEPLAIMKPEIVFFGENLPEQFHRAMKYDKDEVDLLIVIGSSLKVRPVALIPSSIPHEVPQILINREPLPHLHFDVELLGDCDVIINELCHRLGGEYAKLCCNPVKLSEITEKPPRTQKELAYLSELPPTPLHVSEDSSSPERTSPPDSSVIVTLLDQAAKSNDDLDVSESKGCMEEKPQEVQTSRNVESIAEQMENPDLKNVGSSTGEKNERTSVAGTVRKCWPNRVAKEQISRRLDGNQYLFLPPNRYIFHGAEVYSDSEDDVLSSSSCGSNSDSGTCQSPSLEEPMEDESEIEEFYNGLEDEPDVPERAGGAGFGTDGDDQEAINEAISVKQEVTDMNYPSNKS

[5] = system: rDNA silencing (RDN1::URA3); assay: Ribosomal DNA silencing assay (URA3 reporter); assay type: cell-based, S. cerevisiae
Description: Yeast lifespans were determined as in FIG. 2. […] Frequencies were determined by loss of the ADE2 marker gene from the rDNA locus (RDN1). […] Pre-treated cells (RDN1::URA3) were harvested and spotted as 10-fold serial dilutions on either SC or SC with 5-fluororotic acid (5-FOA). In this assay, increased rDNA silencing results in increased survival on 5-FOA medium.
Ribosomal DNA silencing assays using the URA3 reporters were performed as previously described by Bitterman et al. (J Biol Chem 277, 45099-107 (2002)). Ribosomal DNA recombination frequencies were determined by plating W303AR cells (Sinclair, D. A. and Guarente, L. Cell 91, 1033-42 (1997)) on YPD medium with low adenine/histidine and counting the fraction of half-red sectored colonies using Bio-Rad Quantity One software as described by Anderson et al. (J Biol Chem 277, 18881-90. (2002)). At least 6000 cells were analyzed per experiment and all experiments were performed in triplicate. All strains were pre-grown for 15 hours with the relevant compound prior to plating.

[6] = 25 μM NAD+, 25 μM p53-382 acetylated peptide

Oc1ccc(/C=C/c2cc(O)cc(O)c2)cc1 [Resveratrol, 3,5,4′-Trihydroxy-trans-stilbene]
rDNA recombination in a sir2 strain ([1]; sir2 strain): does not suppress | rDNA recombination in the presence of nicotinamide ([1]; with the Sir2 inhibitor nicotinamide): decreased | half-life at 50 µM [2]: 59 h | Effect on maximum lifespan (S. cerevisiae [3]): significantly increased | Increase of average lifespan (S. cerevisiae [3]): 70% | Concentrations at which inhibition of Sir2 was seen (recombinant GST-Sir2): > 100 µM | Optimum concentration of activator for Sir2 stimulation (recombinant GST-Sir2): 2 to 5 µM | Extension of the lifespan of a pnc1 null mutant (S. cerevisiae [4]; pnc1 null mutant): nearly as well as it did wild type cells | Lifespan benefit of concentrations higher than 10 μM (S. cerevisiae [4]; resveratrol 100 μM, 500 μM): no added lifespan benefit | Effect on the lifespan of a sir2 null mutant (S. cerevisiae [4]; sir2 null mutant): no effect | Worms alive on day 17 (C. elegans (strain N2)): 17 worms | Apparent Km for NAD+ and acetylated substrate (recombinant human SIRT1; 5 μM resveratrol in the presence of 50 μM nicotinamide): raised | Concentration at which the activating effect doubled the rate (recombinant human SIRT1; [6]): ~11 µM | Concentration at which the activating effect was essentially saturated (recombinant human SIRT1; [6]): ~100 µM | Effect on the two Vmax determinations (recombinant human SIRT1; 100 μM resveratrol): no significant effect | Lowering of Km for NAD+ (recombinant human SIRT1; 100 μM resveratrol, 1 mM p53-382 acetylated peptide): over 5 fold | Decrease of acetylated peptide Km (recombinant human SIRT1; 100 μM resveratrol, 3 mM NAD+): 35 fold | Km for both NAD+ and acetylated peptide (recombinant human SIRT1; 20 and 100 μM resveratrol in the presence of 50 μM nicotinamide): lowers | Vmax, NAD+ varied (recombinant human SIRT1; +100 μM resveratrol, 1 mM p53-382 acetylated peptide (control 1863)): 1749 AFU/min. | Vmax, p53-382 acetylated peptide varied (recombinant human SIRT1; +100 μM resveratrol, 3 mM NAD+ (control 1107)): 926 AFU/min. | Effect on rDNA silencing [5]: only minor effects
